Test results from ChEMBL document CHEMBL2440027, “Further SAR studies on bicyclic basic merbarone analogues as potent antiproliferative agents” (Bioorg Med Chem, 2013).

Tests used:
COLO 205 = assay: Growth inhibition of human COLO205 cells after 48 hrs by sulforhodamine B assay; assay type: functional; conditions: COLO 205, 48 h
HCT-15 = assay: Growth inhibition of human HCT15 cells assessed as cell growth at 10 uM after 48 hrs by sulforhodamine B assay relative to control; assay type: functional; conditions: HCT-15, 48 h, read-out: Activity
SK-MEL-5 = assay: Growth inhibition of human SK-MEL-5 cells assessed as cell growth at 10 uM after 48 hrs by sulforhodamine B assay relative to control; assay type: functional; conditions: SK-MEL-5, 48 h, read-out: Activity
UACC-62 = assay: Growth inhibition of human UACC62 cells after 48 hrs by sulforhodamine B assay; assay type: functional; conditions: UACC-62, 48 h
HT-29 = assay: Growth inhibition of human HT-29 cells assessed as cell growth at 10 uM after 48 hrs by sulforhodamine B assay relative to control; assay type: functional; conditions: HT-29, 48 h, read-out: Activity
KM12 = assay: Growth inhibition of human KM12 cells after 48 hrs by sulforhodamine B assay; assay type: functional; conditions: KM12, 48 h
MCF7 [1] = assay: Growth inhibition of human MCF7 cells assessed as cell growth at 10 uM after 48 hrs by sulforhodamine B assay relative to control; assay type: functional; conditions: MCF7, 48 h, read-out: Activity
U-251 [2] = assay: Growth inhibition of human U251 cells assessed as cell growth at 10 uM after 48 hrs by sulforhodamine B assay relative to control; assay type: functional; conditions: U-251, 48 h, read-out: Activity
SF-539 = assay: Growth inhibition of human SF539 cells assessed as cell growth at 10 uM after 48 hrs by sulforhodamine B assay relative to control; assay type: functional; conditions: SF-539, 48 h, read-out: Activity
NCI-H226 = assay: Growth inhibition of human NCI-H226 cells after 48 hrs by sulforhodamine B assay; assay type: functional; conditions: NCI-H226, 48 h
A498 = assay: Growth inhibition of human A498 cells assessed as cell growth at 10 uM after 48 hrs by sulforhodamine B assay relative to control; assay type: functional; conditions: A498, 48 h, read-out: Activity
A549 = assay: Growth inhibition of human A549/ATCC cells after 48 hrs by sulforhodamine B assay; assay type: functional; conditions: A549, 48 h
OVCAR-4 = assay: Growth inhibition of human OVCAR4 cells after 48 hrs by sulforhodamine B assay; assay type: functional; conditions: OVCAR-4, 48 h
RPMI-8226 = assay: Growth inhibition of human RPMI8226 cells assessed as cell growth at 10 uM after 48 hrs by sulforhodamine B assay relative to control; assay type: functional; conditions: RPMI-8226, 48 h, read-out: Activity
CAKI-1 = assay: Growth inhibition of human CAKI-1 cells after 48 hrs by sulforhodamine B assay; assay type: functional; conditions: CAKI-1, 48 h
SF-268 = assay: Growth inhibition of human SF268 cells after 48 hrs by sulforhodamine B assay; assay type: functional; conditions: SF-268, 48 h
TK-10 = assay: Growth inhibition of human TK10 cells after 48 hrs by sulforhodamine B assay; assay type: functional; conditions: TK-10, 48 h
M14 = assay: Growth inhibition of human M14 cells assessed as cell growth at 10 uM after 48 hrs by sulforhodamine B assay relative to control; assay type: functional; conditions: M14, 48 h, read-out: Activity
OVCAR-8 = assay: Growth inhibition of human OVCAR8 cells after 48 hrs by sulforhodamine B assay; assay type: functional; conditions: OVCAR-8, 48 h
LOX IMVI = assay: Growth inhibition of human LOXIMVI cells after 48 hrs by sulforhodamine B assay; assay type: functional
SW-620 = assay: Growth inhibition of human SW620 cells after 48 hrs by sulforhodamine B assay; assay type: functional; conditions: SW-620, 48 h
MOLT-4 = assay: Growth inhibition of human MOLT4 cells assessed as cell growth at 10 uM after 48 hrs by sulforhodamine B assay relative to control; assay type: functional; conditions: MOLT-4, 48 h, read-out: Activity
K562 = assay: Growth inhibition of human K562 cells assessed as cell growth at 10 uM after 48 hrs by sulforhodamine B assay relative to control; assay type: functional; conditions: K562, 48 h, read-out: Activity
SN12C = assay: Growth inhibition of human SN12C cells after 48 hrs by sulforhodamine B assay; assay type: functional
OVCAR-5 = assay: Growth inhibition of human OVCAR5 cells after 48 hrs by sulforhodamine B assay; assay type: functional; conditions: OVCAR-5, 48 h
U-251 [3] = assay: Growth inhibition of human U251 cells after 48 hrs by sulforhodamine B assay; assay type: functional; conditions: U-251, 48 h
Malme-3M = assay: Growth inhibition of human MALME-3M cells after 48 hrs by sulforhodamine B assay; assay type: functional
UACC-257 = assay: Growth inhibition of human UACC257 cells after 48 hrs by sulforhodamine B assay; assay type: functional; conditions: UACC-257, 48 h
MDA-MB-231 = assay: Growth inhibition of human MDA-MB-231 cells after 48 hrs by sulforhodamine B assay; assay type: functional; conditions: MDA-MB-231, 48 h
[4] = Growth inhibition of human Hs 578T cells after 48 hrs by sulforhodamine B assay; assay type: functional
MCF7 [5] = assay: Growth inhibition of human MCF7 cells after 48 hrs by sulforhodamine B assay; assay type: functional; conditions: MCF7, 48 h
MT4 = assay: Cytotoxicity against human MT4 cells; assay type: functional, cell-based
NCI-H23 = assay: Growth inhibition of human NCI-H23 cells assessed as cell growth at 10 uM after 48 hrs by sulforhodamine B assay relative to control; assay type: functional; conditions: NCI-H23, 48 h, read-out: Activity
[6] = Growth inhibition of human HCC2998 cells assessed as cell growth at 10 uM after 48 hrs by sulforhodamine B assay relative to control; assay type: functional; conditions: HCC 2998, 48 h, read-out: Activity
[7] = read-out: LC50 (the source's name)

Which GI50 (COLO 205) does the source give for CCCCN(CCCC)CCCNc1nc2c(c(=N)n1-c1ccccc1)c(=S)n(-c1ccccc1)c(=S)n2-c1ccccc1 here?
The GI50 was 200 nM.

And the TGI (COLO 205)?
Its TGI is 1400 nM.

And the CC50 (COLO 205; [7])?
Its CC50 is 6000 nM.

What about the growth at 10 µM (HCT-15) of the same compound?
Its growth at 10 µM is -73.3%.

What about the growth at 10 µM (SK-MEL-5) of the same compound?
Its growth at 10 µM is -100%.

And the GI50 (UACC-62)?
The GI50 was 300 nM.

What about the TGI (UACC-62) of the same compound?
Its TGI is 1200 nM.

And the CC50 (UACC-62; [7])?
The CC50 was 3500 nM.

And the growth at 10 µM (HT-29)?
Its growth at 10 µM is -63.3%.

What about the GI50 (KM12) of the same compound?
Its GI50 is 400 nM.

And the LC50 (KM12)?
Its LC50 is 3800 nM.

And the TGI (KM12)?
Its TGI is 1500 nM.

What about the growth at 10 µM (MCF7 [1]) of the same compound?
Its growth at 10 µM is -88%.

What about the growth at 10 µM (U-251 [2]) of the same compound?
Its growth at 10 µM is -100%.

What about the growth at 10 µM (SF-539) of the same compound?
Its growth at 10 µM is -97.7%.

What about the GI50 (NCI-H226) of the same compound?
Its GI50 is 1400 nM.

What about the LC50 (NCI-H226) of the same compound?
Its LC50 is 5500 nM.

And the TGI (NCI-H226)?
The TGI was 2800 nM.

What about the growth at 10 µM (A498) of the same compound?
Its growth at 10 µM is -100%.

What about the GI50 (A549) of the same compound?
Its GI50 is 700 nM.

And the LC50 (A549)?
The LC50 was 8300 nM.

What about the TGI (A549) of the same compound?
Its TGI is 2400 nM.

And the GI50 (OVCAR-4)?
The GI50 was 600 nM.

And the TGI (OVCAR-4)?
The TGI was 1900 nM.

What about the CC50 (OVCAR-4; [7]) of the same compound?
Its CC50 is 4400 nM.

What about the growth at 10 µM (RPMI-8226) of the same compound?
The growth at 10 µM was -53.4%.

And the GI50 (CAKI-1)?
The GI50 was 100 nM.

What about the LC50 (CAKI-1) of the same compound?
The LC50 was 3100 nM.

What about the TGI (CAKI-1) of the same compound?
The TGI was 800 nM.

And the GI50 (SF-268)?
The GI50 was 1000 nM.

What about the LC50 (SF-268) of the same compound?
Its LC50 is 4700 nM.

What about the TGI (SF-268) of the same compound?
Its TGI is 2200 nM.

What about the GI50 (TK-10) of the same compound?
Its GI50 is 1300 nM.

And the TGI (TK-10)?
Its TGI is 2700 nM.

And the CC50 (TK-10; [7])?
Its CC50 is 5600 nM.

What about the growth at 10 µM (M14) of the same compound?
The growth at 10 µM was -86.3%.

What about the GI50 (OVCAR-8) of the same compound?
Its GI50 is 900 nM.

And the TGI (OVCAR-8)?
Its TGI is 2700 nM.

What about the GI50 (LOX IMVI) of the same compound?
Its GI50 is 200 nM.

And the LC50 (concentration killing 50% of cells) (LOX IMVI)?
Its LC50 (concentration killing 50% of cells) is 600 nM.

What about the TGI (LOX IMVI) of the same compound?
Its TGI is 300 nM.

What about the GI50 (SW-620) of the same compound?
Its GI50 is 400 nM.

What about the LC50 (SW-620) of the same compound?
The LC50 was 3700 nM.

What about the TGI (SW-620) of the same compound?
The TGI was 1400 nM.

And the growth at 10 µM (MOLT-4)?
The growth at 10 µM was -55.8%.

What about the growth at 10 µM (K562) of the same compound?
Its growth at 10 µM is -90.3%.

What about the GI50 (SN12C) of the same compound?
Its GI50 is 1200 nM.

And the TGI (SN12C)?
Its TGI is 2400 nM.

What about the CC50 (SN12C; [7]) of the same compound?
The CC50 was 4900 nM.

What about the GI50 (OVCAR-5) of the same compound?
The GI50 was 1400 nM.

What about the TGI (OVCAR-5) of the same compound?
Its TGI is 2800 nM.

And the CC50 (OVCAR-5; [7])?
Its CC50 is 5500 nM.

What about the GI50 (U-251 [3]) of the same compound?
Its GI50 is 300 nM.

And the TGI (U-251 [3])?
Its TGI is 1200 nM.

And the CC50 (U-251 [3]; [7])?
The CC50 was 3500 nM.

And the GI50 (Malme-3M)?
Its GI50 is 200 nM.

What about the TGI (Malme-3M) of the same compound?
The TGI was 500 nM.

What about the CC50 (Malme-3M; [7]) of the same compound?
Its CC50 is 1500 nM.

And the GI50 (UACC-257)?
Its GI50 is 200 nM.

And the TGI (UACC-257)?
Its TGI is 400 nM.

What about the CC50 (UACC-257; [7]) of the same compound?
The CC50 was 900 nM.

What about the GI50 (MDA-MB-231) of the same compound?
Its GI50 is 300 nM.

And the TGI (MDA-MB-231)?
The TGI was 900 nM.

And the CC50 (MDA-MB-231; [7])?
Its CC50 is 3000 nM.

What about the GI50 [4] of the same compound?
Its GI50 is 500 nM.

What about the TGI [4] of the same compound?
The TGI was 1900 nM.

What about the CC50 [4, 7] of the same compound?
Its CC50 is 5500 nM.

What about the GI50 (MCF7 [5]) of the same compound?
The GI50 was 300 nM.

What about the TGI (MCF7 [5]) of the same compound?
Its TGI is 1300 nM.

What about the CC50 (MCF7 [5]; [7]) of the same compound?
Its CC50 is 3600 nM.

And the IC50 (MT4)?
Its IC50 is 1600 nM.

What about the growth at 10 µM (NCI-H23) of the same compound?
The growth at 10 µM was -56.3%.

And the growth at 10 µM [6]?
The growth at 10 µM was -91.5%.
